Literature values in patent US20200338016A1, “COMBINATION BROAD-SPECTRUM ANTIBIOTIC PREPARATIONS FOR DRUG-RESISTANT PATHOGENS” (priority 2019, published 2020).

System: Mycobacterim tuberculosis
Conditions: ten strains of Mycobacterim tuberculosis, including six resistant to antibiotics

Row | Structure (SMILES) | concentration that kills
1 | O=C(O[C@@H]1Cc2c(O)cc(O)cc2O[C@@H]1c1cc(O)c(O)c(O)c1)c1cc(O)c(O)c(O)c1 [EGCG, epigallocatechin gallate] | 1024 micrograms per milliliter
2 | O=C(O)/C=C/c1ccc(O)c(O)c1 [caffeic acid] | 1024 micrograms per milliliter
3 | O=c1c(O)c(-c2ccc(O)c(O)c2)oc2cc(O)cc(O)c12 [quercetin] | 1024 micrograms per milliliter
